Publication PMC12446476 (Nature Communications, 2025)
In brackets after ≈: the same amount, converted by molar mass. Read-outs that look alike come from different tables or passages of the source.

Tests used:
[1] = target: recombinant NgFabI protein (Neisseria gonorrhoeae, UniProt A0ACH0F547); test: biochemical
Protocol: FabI activity was monitored by measuring NADH consumption. […] To initiate reactions, 50 µM NADH was added, and absorbance was monitored at 340 nm every 12 s for a total of 40 min using a Spectramax Plus 384 plate reader (Molecular Devices) at a controlled temperature of 30 °C. Data were analysed using the XLfit Microsoft Excel plugin (version 5.5). IC50 values were determined using a logistic sigmoid curve-fitting of the inhibitor dose response curves.

N. gonorrhoeae [2] = test: MIC determination, broth microdilution (baseline for liquid-based assays); assay type: cell-based, Neisseria gonorrhoeae; conditions: for MIC: Neisseria gonorrhoeae
From the text: (§1) The 2024 WHO N. gonorrhoeae reference strains were used for quality control. Only whole MIC doubling dilutions are reported. Clinical breakpoints or the epidemiological cutoff (ECOFF, to indicate azithromycin resistance) from EUCAST (v14.0, https://www.eucast.org/clinical_breakpoints) were used to classify isolates as antimicrobial susceptible or resistant. […] Two times the standard inoculum defined by CLSI was used to establish consistent growth in untreated control samples for some strains. In vitro time-kill assays were performed according to CLSI guidelines[65] using Columbia Broth (BD Difco) supplemented with 1% IsoVitaleX Enrichment (BD). Viable bacterial counts were generated by plating 10-fold serially diluted samples on GC agar plates containing 1% IsoVitaleX Enrichment (BD).

N. gonorrhoeae [3] = test: In vitro time-kill assay; assay type: cell-based, Neisseria gonorrhoeae; conditions: for mean time to reach bactericidal activity: ten isolates
From the text: as §1

Sequence of recombinant NgFabI protein (A0ACH0F547 entry or part of it): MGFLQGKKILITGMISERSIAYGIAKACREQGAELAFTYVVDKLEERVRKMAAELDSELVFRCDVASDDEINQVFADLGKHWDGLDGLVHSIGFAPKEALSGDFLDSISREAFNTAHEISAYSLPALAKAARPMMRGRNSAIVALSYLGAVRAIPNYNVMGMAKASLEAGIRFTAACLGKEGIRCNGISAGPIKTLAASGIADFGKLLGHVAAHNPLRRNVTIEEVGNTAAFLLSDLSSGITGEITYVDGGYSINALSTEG

## Cc1c(CN(C)C(=O)/C=C/c2cnc3c(c2)N[C@H](C)[C@H](O)C(=O)N3)oc2ccccc12 [Debio 1453]
[1]
  IC50: 600 pM
N. gonorrhoeae [2]; 6804
  MIC, broth microdilution: 0.06 µg/mL (≈ 0.143 µM)
N. gonorrhoeae [2]; AR Bank0175
  MIC, broth microdilution: 0.06 µg/mL (≈ 0.143 µM)
N. gonorrhoeae [2]; AR Bank0179
  MIC, broth microdilution: 0.06 µg/mL (≈ 0.143 µM)
N. gonorrhoeae [2]; ATCC49226, read-out: MIC, broth microdilution, ATCC 49226
  MIC: 0.125 µg/mL (≈ 0.297 µM)
N. gonorrhoeae [2]; ATCC700825, ATCC 700825, read-out: MIC, broth microdilution
  MIC: 0.03 µg/mL (≈ 0.0713 µM)
N. gonorrhoeae [2]; read-out: MIC, broth microdilution, WHO V
  MIC: 0.125 µg/mL (≈ 0.297 µM)
N. gonorrhoeae [2]; read-out: MIC, broth microdilution, WHO X
  MIC: 0.125 µg/mL (≈ 0.297 µM)
N. gonorrhoeae [2]; read-out: MIC, broth microdilution, WHO Y
  MIC: 0.125 µg/mL (≈ 0.297 µM)
N. gonorrhoeae [2]; read-out: MIC, broth microdilution, WHO Z
  MIC: 0.125 µg/mL (≈ 0.297 µM)
N. gonorrhoeae [2]; 6926, read-out: MIC, broth microdilution
  MIC: 0.06 µg/mL (≈ 0.143 µM)
N. gonorrhoeae [3]; 2× MIC
  mean time to reach bactericidal activity: 10 h
N. gonorrhoeae [3]; 4× MIC
  mean time to reach bactericidal activity: 8.5 h
N. gonorrhoeae [3]; 8× MIC
  mean time to reach bactericidal activity: 8 h
N. gonorrhoeae [3]; 16× MIC
  mean time to reach bactericidal activity: 8 h
N. gonorrhoeae [3]; 6804, 2X MIC, 0 hr
  Log10CFU/ml (time kill): 6.11 Log10CFU/ml
N. gonorrhoeae [3]; 6804, 2X MIC, 1 hr
  Log10CFU/ml (time kill): 6.05 Log10CFU/ml
N. gonorrhoeae [3]; 6804, 2X MIC, 3 hr
  Log10CFU/ml (time kill): 5.70 Log10CFU/ml
N. gonorrhoeae [3]; 6804, 2X MIC, 6 hr
  Log10CFU/ml (time kill): 5.13 Log10CFU/ml
N. gonorrhoeae [3]; 6804, 2X MIC, 10 hr
  Log10CFU/ml (time kill): 4.59 Log10CFU/ml
N. gonorrhoeae [3]; 6804, 2X MIC, 24 hr
  Log10CFU/ml (time kill): 1.95 Log10CFU/ml
N. gonorrhoeae [3]; 6804, 4X MIC, 0 hr
  Log10CFU/ml (time kill): 6.04 Log10CFU/ml
N. gonorrhoeae [3]; 6804, 4X MIC, 1 hr
  Log10CFU/ml (time kill): 6.04 Log10CFU/ml
N. gonorrhoeae [3]; 6804, 4X MIC, 3 hr
  Log10CFU/ml (time kill): 5.43 Log10CFU/ml
N. gonorrhoeae [3]; 6804, 4X MIC, 6 hr
  Log10CFU/ml (time kill): 4.53 Log10CFU/ml
N. gonorrhoeae [3]; 6804, 4X MIC, 10 hr
  Log10CFU/ml (time kill): 3.72 Log10CFU/ml
N. gonorrhoeae [3]; 6804, 4X MIC, 24 hr
  Log10CFU/ml (time kill): 1.95 Log10CFU/ml
N. gonorrhoeae [3]; 6804, 8X MIC, 0 hr
  Log10CFU/ml (time kill): 6.21 Log10CFU/ml
N. gonorrhoeae [3]; 6804, 8X MIC, 1 hr
  Log10CFU/ml (time kill): 6.03 Log10CFU/ml
N. gonorrhoeae [3]; 6804, 8X MIC, 3 hr
  Log10CFU/ml (time kill): 5.13 Log10CFU/ml
N. gonorrhoeae [3]; 6804, 8X MIC, 6 hr
  Log10CFU/ml (time kill): 4.30 Log10CFU/ml
N. gonorrhoeae [3]; 6804, 8X MIC, 10 hr
  Log10CFU/ml (time kill): 3.41 Log10CFU/ml
N. gonorrhoeae [3]; 6804, 8X MIC, 24 hr
  Log10CFU/ml (time kill): 1.95 Log10CFU/ml
N. gonorrhoeae [3]; 6804, 16X MIC, 0 hr
  Log10CFU/ml (time kill): 6.00 Log10CFU/ml
N. gonorrhoeae [3]; 6804, 16X MIC, 1 hr
  Log10CFU/ml (time kill): 6.07 Log10CFU/ml
N. gonorrhoeae [3]; 6804, 16X MIC, 3 hr
  Log10CFU/ml (time kill): 5.20 Log10CFU/ml
N. gonorrhoeae [3]; 6804, 16X MIC, 6 hr
  Log10CFU/ml (time kill): 4.67 Log10CFU/ml
N. gonorrhoeae [3]; 6804, 16X MIC, 10 hr
  Log10CFU/ml (time kill): 3.70 Log10CFU/ml
N. gonorrhoeae [3]; 6804, 16X MIC, 24 hr
  Log10CFU/ml (time kill): 1.95 Log10CFU/ml
N. gonorrhoeae [3]; AR Bank0175, 2X MIC, 0 hr
  Log10CFU/ml (time kill): 6.11 Log10CFU/ml
N. gonorrhoeae [3]; AR Bank0175, 2X MIC, 1 hr
  Log10CFU/ml (time kill): 5.92 Log10CFU/ml
N. gonorrhoeae [3]; AR Bank0175, 2X MIC, 3 hr
  Log10CFU/ml (time kill): 5.61 Log10CFU/ml
N. gonorrhoeae [3]; AR Bank0175, 2X MIC, 6 hr
  Log10CFU/ml (time kill): 4.46 Log10CFU/ml
N. gonorrhoeae [3]; AR Bank0175, 2X MIC, 10 hr
  Log10CFU/ml (time kill): 3.38 Log10CFU/ml
N. gonorrhoeae [3]; AR Bank0175, 2X MIC, 24 hr
  Log10CFU/ml (time kill): 1.95 Log10CFU/ml
N. gonorrhoeae [3]; AR Bank0175, 4X MIC, 0 hr
  Log10CFU/ml (time kill): 6.15 Log10CFU/ml
N. gonorrhoeae [3]; AR Bank0175, 4X MIC, 1 hr
  Log10CFU/ml (time kill): 5.59 Log10CFU/ml
N. gonorrhoeae [3]; AR Bank0175, 4X MIC, 3 hr
  Log10CFU/ml (time kill): 5.22 Log10CFU/ml
N. gonorrhoeae [3]; AR Bank0175, 4X MIC, 6 hr
  Log10CFU/ml (time kill): 4.45 Log10CFU/ml
N. gonorrhoeae [3]; AR Bank0175, 4X MIC, 10 hr
  Log10CFU/ml (time kill): 3.28 Log10CFU/ml
N. gonorrhoeae [3]; AR Bank0175, 4X MIC, 24 hr
  Log10CFU/ml (time kill): 1.95 Log10CFU/ml
N. gonorrhoeae [3]; AR Bank0175, 8X MIC, 0 hr
  Log10CFU/ml (time kill): 5.85 Log10CFU/ml
N. gonorrhoeae [3]; AR Bank0175, 8X MIC, 1 hr
  Log10CFU/ml (time kill): 5.40 Log10CFU/ml
N. gonorrhoeae [3]; AR Bank0175, 8X MIC, 3 hr
  Log10CFU/ml (time kill): 5.08 Log10CFU/ml
N. gonorrhoeae [3]; AR Bank0175, 8X MIC, 6 hr
  Log10CFU/ml (time kill): 3.85 Log10CFU/ml
N. gonorrhoeae [3]; AR Bank0175, 8X MIC, 10 hr
  Log10CFU/ml (time kill): 2.95 Log10CFU/ml
N. gonorrhoeae [3]; AR Bank0175, 8X MIC, 24 hr
  Log10CFU/ml (time kill): 1.95 Log10CFU/ml
N. gonorrhoeae [3]; AR Bank0175, 16X MIC, 0 hr
  Log10CFU/ml (time kill): 6.08 Log10CFU/ml
